Measured values as given in patent US7517902B2, “Substituted indazoles, compositions containing the same, and the preparation and use thereof” (Aventis Pharma S.A., priority 2004, dated 2009).
pIC50: −log10 of the molar value. Counter-ions that a name gives are not always drawn.

Legend:
Assay type in all cases: biochemical
[1] = molecular target: T1, human KDR enzyme (Homo sapiens, UniProt P35968); test: KDR substrate phosphorylation assay (scintillation, 96-well plate)
T1 construct: The cytoplasmic domain of the human KDR enzyme was cloned in the form of a GST fusion; GST; made in house; host or cells: SF21 insect cells (baculovirus, pFastBac)
T1 sequence (P35968 786-1356 limits assumed): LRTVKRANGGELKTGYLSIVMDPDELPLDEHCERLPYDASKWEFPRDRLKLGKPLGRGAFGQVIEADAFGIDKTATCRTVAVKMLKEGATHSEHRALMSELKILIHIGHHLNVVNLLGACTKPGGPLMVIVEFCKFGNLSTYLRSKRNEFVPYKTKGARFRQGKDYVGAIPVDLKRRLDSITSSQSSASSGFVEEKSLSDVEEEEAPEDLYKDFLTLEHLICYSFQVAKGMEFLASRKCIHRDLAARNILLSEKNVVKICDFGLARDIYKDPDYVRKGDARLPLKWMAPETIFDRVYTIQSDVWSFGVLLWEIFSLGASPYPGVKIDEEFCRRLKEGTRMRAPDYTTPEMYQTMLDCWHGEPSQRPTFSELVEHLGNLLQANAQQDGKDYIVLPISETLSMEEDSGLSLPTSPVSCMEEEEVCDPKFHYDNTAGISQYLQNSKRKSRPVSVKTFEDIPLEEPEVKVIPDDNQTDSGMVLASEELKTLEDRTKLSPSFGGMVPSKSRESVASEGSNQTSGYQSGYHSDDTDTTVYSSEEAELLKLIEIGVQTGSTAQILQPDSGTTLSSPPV
Protocol: The inhibitory effect of the compounds is determined in an assay of substrate phosphorylation by the KDR enzyme in vitro using a scintillation technique (96-well plate, NEN).
The cytoplasmic domain of the human KDR enzyme was cloned in the form of a GST fusion into the baculovirus expression vector pFastBac. The protein was expressed in SF21 cells and purified to approximately 60% homogeneity.
The KDR kinase activity is measured in 20 mM MOPS, 10 mM MgCl2, 10 mM MnCl2, 1 mM DTT, 2.5 mM EGTA, 10 mM β-glycerophosphate, pH=7.2, in the presence of 10 mM MgCl2, 100 μM Na3VO4, 1 mM NaF. 10 μl of the compound are added to 70 μl of kinase buffer, containing 100 ng of KDR enzyme at 4° C. The reaction is triggered by adding 20 μl of solution containing 2 μg of substrate (SH2-SH3 fragment of PLCγ expressed in the form of a GST fusion protein), 2 μCi γ^33P[ATP] and 2 μM cold ATP. After 1 hour of incubation at 37° C., the reaction is stopped by adding 1 volume (100 μl) of 200 mM EDTA. The incubation buffer is withdrawn and the wells are washed three times with 300 μl of PBS. The radioactivity is measured in each well using a Top Count NXT radioactivity counter (Packard).
The background noise is determined by measuring the radioactivity in four different wells containing the radioactive ATP and the substrate alone.
A control for total activity is measured in four different wells containing all of the reagents (γ^33P-[ATP], KDR and PLCγ substrate), but in the absence of compound.
The inhibition of KDR activity with the compound of the invention is expressed in percentage inhibition of the control activity determined in the absence of compound.
The compound SU5614 (Calbiochem) (1 μM) is included in each plate as an inhibition control.

[2] = molecular target: T2, human Tie2 (Homo sapiens, UniProt Q02763); test: Tie2 assay of PLC phosphorylation (FlashPlate); conditions: read-out: IC 50 TIE2
T2 construct: amino acids of the intracellular domain 776-1124; made in house
T2 sequence (Q02763 776-1124): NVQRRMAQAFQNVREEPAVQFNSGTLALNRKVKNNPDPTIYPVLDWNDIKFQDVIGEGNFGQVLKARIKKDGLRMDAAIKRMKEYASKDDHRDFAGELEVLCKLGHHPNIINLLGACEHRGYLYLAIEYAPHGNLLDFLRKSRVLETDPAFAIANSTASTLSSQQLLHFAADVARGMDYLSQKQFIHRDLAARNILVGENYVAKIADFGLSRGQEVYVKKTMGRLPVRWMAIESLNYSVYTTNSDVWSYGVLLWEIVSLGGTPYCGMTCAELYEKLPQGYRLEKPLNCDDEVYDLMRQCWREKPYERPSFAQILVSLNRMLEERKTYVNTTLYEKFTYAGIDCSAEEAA
Protocol: The coding sequence of human Tie2, corresponding to the amino acids of the intracellular domain 776-1124, was generated by PCR, using the cDNA isolated from human placenta as a model. This sequence was introduced into a baculovirus expression vector pFastBacGT in the form of a GST fusion protein.
The inhibitory effect of the molecules is determined in an assay of PLC phosphorylation by Tie2 in the presence of GST-Tie2 purified to approximately 80% homogeneity. The substrate is composed of the SH2-SH3 fragments of PLC expressed in the form of a GST fusion protein.
The kinase activity of Tie2 is measured in a 20 mM MOPS buffer, pH 7.2, containing 10 mM MgCl2, 10 mM MnCl2, 1 mM DTT, 10 mM of glycerol-phosphate. In a 96-well FlashPlate plate, kept on ice, a reaction mixture is deposited which is composed of 70 μl of kinase buffer containing 100 ng of GST-Tie2 enzyme per well. Subsequently 10 μl of the test molecule diluted to a concentration of 10% maximum in DMvSO are added. For a given concentration, each measurement is carried out in quadruplicate. The reaction is initiated by adding 20 μl of solution containing 2 μg of GST-PLC, 2 μM of cold ATP and 1 μCi of ^33P[ATP]. After 1 hour of incubation at 37° C., the reaction is terminated by adding 1 volume (100 μl) of 200 mM EDTA. Following removal of the incubation buffer, the wells are washed three times with 300 μl of PBS. The radioactivity is measured on a Wallac MicroBeta 1450.
The inhibition of Tie2 activity is calculated and expressed as a percentage inhibition relative to the control activity determined in the absence of compound.

[3] = molecular target: T3, Aurora2 (Homo sapiens, UniProt O14965); test: Aurora2 enzyme assay, NuMA substrate phosphorylation (Flashplate); conditions: read-out: IC 50 Aurora2
T3 construct: Aurora 2: whole recombinant protein comprising an N-terminal histidine tail; His tag (histidine tail) (N); made in house; host or cells: E. coli
T3 sequence (O14965 1-403): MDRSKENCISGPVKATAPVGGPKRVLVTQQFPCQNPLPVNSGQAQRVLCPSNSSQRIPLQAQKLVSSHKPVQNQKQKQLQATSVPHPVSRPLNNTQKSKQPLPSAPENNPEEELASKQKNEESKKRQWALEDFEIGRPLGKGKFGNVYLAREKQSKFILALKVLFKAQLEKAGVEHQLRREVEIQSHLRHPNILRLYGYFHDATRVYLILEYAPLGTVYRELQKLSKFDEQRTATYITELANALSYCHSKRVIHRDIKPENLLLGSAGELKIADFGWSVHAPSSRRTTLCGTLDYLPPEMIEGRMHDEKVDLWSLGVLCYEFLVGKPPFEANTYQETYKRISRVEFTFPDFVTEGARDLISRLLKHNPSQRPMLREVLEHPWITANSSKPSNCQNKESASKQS
Protocol: The inhibitory effect of compounds with respect to the kinases Aurora1 and Aurora2 is determined by an enzyme assay employing radioactivity detection.
The kinase activity of Aurora 1 and Aurora 2 is evaluated by the phosphorylation of the substrate Numa-histidine in the presence of radiolabeled ATP ([^33P]ATP), using 96-well Flashplate plates in which nickel chelate is fixed to the surface of the microplate. The amount of ^33P phosphate incorporated in the NuMA substrate is proportional to the activity of the enzyme Aurora1 or Aurora2.
The proteins are produced in the protein production laboratory of the SanofiAventis group.
Aurora 2: whole recombinant protein comprising an N-terminal histidine tail, expressed in E. coli and purified to more than 82%.
NuMA (nuclear protein that associates with the mitotic apparatus) fragment of 424 amino acids, expressed in E. coli, whose N-terminal end has been labeled with histidine and used as a substrate for the two Aurora enzymes.
The microplates used are 96-well Flash-Plate plates with nickel chelate (Perkin Elmer, model SMP107).
The products for evaluation are incubated in a reaction volume of 100 μL per well in the presence of 10 nM of Aurora 1 or Aurora 2, 500 nM of NuMA substrate in a buffer composed of 50 mM of Tris/HCl (pH 7.5), 50 mM NaCl, 5 mM MgCl2 (Aurora-B) or 10 mM MgCl2 (Aurora-A) and 1 mM of DTT, at 37° C.
In each well, 80 μL of the enzyme/substrate incubation buffer are distributed, followed by 10 μL of the product to be evaluated, in variable concentrations. The reaction is initiated by adding 1 μM of final ATP containing 0.2 μCi of [^33P]ATP (10 μL). After 30 minutes of incubation, the reaction is terminated by simply removing the reaction buffer and each well is washed twice with 300 μl of the Tris/HCl buffer. The radioactivity is then measured in each well by means of a scintillation apparatus, Packard, Top count model.
The control enzyme activity of Aurora is expressed by the number of counts per minute obtained within 30 minutes, after deduction of the background noise (reaction mixture not containing the enzyme). The evaluation of the various test products is expressed in percentage inhibition of the Aurora activity relative to the control.

Row | pIC50 [1] | pIC50 [2] | pIC50 [3] | SMILES
1 | 7.48 | 5.75 | 6.95 | Nc1n[nH]c2cc(-c3ccc(NC(=O)Nc4cc(C(F)(F)F)ccc4F)cc3)ccc12 [Example 1, 1-[4-(3-Amino-1H-indazol-6-yl)phenyl]-3-(2-fluoro-5-trifluoromethylphenyl)urea hydrochloride]
2 | 6.79 | 6.10 | 6.33 | Nc1ccc(-c2ccc3c(NC(=O)c4ccsc4)n[nH]c3c2F)cc1 [Example 4, 6-(4-Aminophenyl)-7-fluoro-3-[(thiophen-3-yl)carbonylamino]-1H-indazole hydrochloride]
3 | 8.10 | 8.05 | 7.44 | O=C(Nc1ccc(-c2ccc3c(NC(=O)c4ccsc4)n[nH]c3c2F)cc1)Nc1cc(C(F)(F)F)ccc1F [Example 6, 1-(4-{7-Fluoro-3-[(thiophen-3-yl)carbonylamino]-1H-indazol-6-yl}phenyl)-3-(2-fluoro-5-trifluoromethylphenyl)urea]
4 | 6.91 | 7.29 | 6.76 | Nc1n[nH]c2c(F)c(-c3ccc(NC(=O)Nc4cc(C(F)(F)F)ccc4F)cc3)ccc12 [Example 7, 1-[4-(3-Amino-7-fluoro-1H-indazol-6-yl)phenyl]-3-(2-fluoro-5-trifluoro-methylphenyl)urea hydrochloride]
5 | 6.16 | 7.34 | 5.76 | O=C(Nc1ccc(-c2c(F)c(F)c3c(NC(=O)c4ccsc4)n[nH]c3c2F)cc1)Nc1cc(C(F)(F)F)ccc1F [Example 9, 1-(4-{4,5,7-Trifluoro-3-[(thiophen-3-yl)carbonylamino]-1H-indazol-6-yl}-phenyl)-3-(2-fluoro-5-trifluoromethylphenyl)urea]
6 | 6.78 | 7.74 | 6.77 | O=C(Nc1ccc(-c2ccc3c(NC(=O)c4ccsc4)n[nH]c3c2)cc1)Nc1cc(C(F)(F)F)ccc1F [Example 10, 1-(4-[3-[(Thiophen-3-yl)carbonylamino]-1H-indazol-6-yl}phenyl)-3-(2-fluoro-5-trifluoromethylphenyl)urea]
7 | 7.43 | 7.96 | 6.73 | O=C(Nc1ccc(-c2ccc3c(NC(=O)c4ccsc4)n[nH]c3c2F)cc1F)Nc1cc(C(F)(F)F)ccc1F [Example 11, 1-(4-{7-Fluoro-3-[(thiophen-3-yl)carbonylamino]-1H-indazol-6-yl}-2-fluorophenyl)-3-(2-fluoro-5-trifluoromethylphenyl)urea]
8 | 5.56 | 7.44 | 7.85 | O=C(Nc1ccccc1)Nc1ccc(-c2ccc3c(NC(=O)c4ccsc4)n[nH]c3c2F)cc1 [Example 12, 1-(4-{7-Fluoro-3-[(thiophen-3-yl)carbonylamino]-1H-indazol-6-yl}phenyl)-3-phenylurea]
9 | 7.54 | 7.51 | 7.19 | CC(C)(C)c1cc(NC(=O)Nc2ccc(-c3ccc4c(NC(=O)c5ccsc5)n[nH]c4c3F)cc2)no1 [Example 13, 1-(4-{7-Fluoro-3-[(thiophen-3-yl)carbonylamino]-1H-indazol-6-yl}phenyl)-3-(5-tert-butylisoxazol-3-yl)urea]
10 | 5.38 | 7.30 | 7.64 | O=C(Nc1ccc(-c2ccc3c(NC(=O)c4ccsc4)n[nH]c3c2F)cc1)Nc1ccccc1F [Example 14, 1-(4-{7-Fluoro-3-[(thiophen-3-yl)carbonylamino]-1H-indazol-6-yl}phenyl)-3-(2-fluorophenyl)urea]
11 | 7.40 | 7.70 | 7.55 | O=C(Nc1ccc(-c2ccc3c(NC(=O)c4ccsc4)n[nH]c3c2F)cc1)Nc1cccc(C(F)(F)F)c1 [Example 15, 1-(4-{7-Fluoro-3-[(thiophen-3-yl)carbonylamino]-1H-indazol-6-yl}phenyl)-3-(5-trifluoromethylphenyl)urea]
12 | 7.72 | 8.52 | 6.85 | Cc1ccc(-n2nc(C(C)(C)C)cc2NC(=O)Nc2ccc(-c3ccc4c(NC(=O)c5ccsc5)n[nH]c4c3F)cc2)cc1 [Example 16, 1-(4-{7-Fluoro-3-[(thiophen-3-yl)carbonylamino]-1H-indazol-6-yl}phenyl)-3-(5-tert-butyl-2-p-tolyl-2H-pyrazol-3-yl)urea]
13 | 6.48 | 6.64 | 7.04 | Nc1n[nH]c2c(F)c(-c3ccc(NC(=O)Nc4cccc(C(F)(F)F)c4)cc3)ccc12 [Example 19, 1-[4-(3-Amino-7-fluoro-1H-indazol-6-yl)phenyl]-3-(3-trifluoromethylphenyl)urea]
14 |  | 6.30 | 7.20 | Nc1n[nH]c2c(F)c(-c3ccc(NC(=O)Nc4ccccc4)cc3)ccc12 [Example 20, 1-[4-(3-Amino-7-fluoro-1H-indazol-6-yl)phenyl]-3-phenylurea]
15 |  | 6.64 |  | O=C(Nc1ccc(-c2ccc3c(NC(=O)c4ccsc4)n[nH]c3c2F)cn1)Nc1cc(C(F)(F)F)ccc1F [Example 24, 1-(5-{7-Fluoro-3-[(thiophen-3-yl)carbonylamino]-1H-indazol-6-yl}pyridin-2-yl)-3-(2-fluoro-5-trifluoromethylphenyl)urea]
